# From US20250136555A1 (HARBIN MEDISAN PHARMACEUTICAL CO., LTD., priority 2022, published 2025)
# pEC50: −log10 of the molar value. Read-outs that look alike come from different tables or passages of the source.
# What was measured:
# [1] = biological target: T1, PPARα (Homo sapiens, UniProt Q07869); assay: GAL4 hybrid reporter gene method, PPARα agonistic activity; format: cell-based; conditions: Cos-7 cells, Gal4-PPARα (LBD); GW7647 10 nM = 100%; 16 h
# T1 construct: expressed in transfected cells; host or cells: COS-7
# T1 sequence (Q07869 239-466 limits assumed): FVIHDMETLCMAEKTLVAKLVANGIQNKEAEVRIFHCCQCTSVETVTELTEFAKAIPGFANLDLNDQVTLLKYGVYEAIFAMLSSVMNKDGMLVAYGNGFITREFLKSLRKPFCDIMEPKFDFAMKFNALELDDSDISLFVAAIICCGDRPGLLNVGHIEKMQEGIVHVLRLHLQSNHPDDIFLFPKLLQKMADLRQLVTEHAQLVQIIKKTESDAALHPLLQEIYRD
# Procedure: (§1) Cos-7 cells (African green monkey kidney fibroblasts, commonly used tool cells) were cultured in a 10-cm cell culture dish with a DMEM complete medium containing 10% fetal bovine serum. When growing at a density of about 70%, the cells were ready for transfection. […] The working solution described above was then combined with 8 mL of the DMEM complete medium, and the mixture was added to the cell culture dish for cell transfection. After 4 h of transfection, the cells were digested, resuspended, and seeded into a 96-well plate at 25,000 cells/well. […] 10 μL of a reporter gene detection solution (purchased from Shanghai Beyotime Biological Tech. Co., Ltd.) was added. After the resulting solution was mixed and reacted, biological fluorescence was detected by using a multifunctional microplate reader, and corresponding half maximal effective concentration (EC50) values were calculated according to the detection values. […] Transfection working solutions for different nuclear receptors were prepared and added into COS-7 cells. The preparation method for the transfection working solution was as follows: the constructed pBIND-Gal4-PPARα (LBD) (or pBIND-Gal4-PPARδ (LBD) plasmid or pBIND-Gal4-PPARγ (LBD) plasmid or pBIND-Gal4-RARα (LBD) plasmid or pBIND-Gal4-RARγ (LBD) plasmid or pBIND-Gal4-RARβ (LBD) plasmid or pBIND-Gal4-RORα (LBD) plasmid or pBIND-Gal4-RORγ (LBD) plasmid or pBIND-Gal4-RORβ (LBD) plasmid or pBIND-Gal4-FXR (LBD) plasmid or pBIND-Gal4-RXRα.
# [2] = biological target: T2, PPARδ (Homo sapiens, UniProt Q03181); assay: GAL4 hybrid reporter gene method, PPARδ agonistic activity; format: cell-based
# T2 construct: expressed in transfected cells; host or cells: COS-7
# T2 sequence (Q03181 211-439 limits assumed): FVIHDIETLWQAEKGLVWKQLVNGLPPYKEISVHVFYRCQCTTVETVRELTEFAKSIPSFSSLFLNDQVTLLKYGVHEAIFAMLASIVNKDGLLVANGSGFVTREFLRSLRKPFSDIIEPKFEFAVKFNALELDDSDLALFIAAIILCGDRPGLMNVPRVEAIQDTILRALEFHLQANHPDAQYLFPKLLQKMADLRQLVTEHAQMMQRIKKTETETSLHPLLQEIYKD
# Procedure: as §1
# [3] = biological target: T3, PPARγ (Homo sapiens, UniProt P37231); assay: GAL4 hybrid reporter gene method, PPARγ agonistic activity; format: cell-based
# T3 construct: expressed in transfected cells; host or cells: COS-7
# T3 sequence (P37231 238-503 limits assumed): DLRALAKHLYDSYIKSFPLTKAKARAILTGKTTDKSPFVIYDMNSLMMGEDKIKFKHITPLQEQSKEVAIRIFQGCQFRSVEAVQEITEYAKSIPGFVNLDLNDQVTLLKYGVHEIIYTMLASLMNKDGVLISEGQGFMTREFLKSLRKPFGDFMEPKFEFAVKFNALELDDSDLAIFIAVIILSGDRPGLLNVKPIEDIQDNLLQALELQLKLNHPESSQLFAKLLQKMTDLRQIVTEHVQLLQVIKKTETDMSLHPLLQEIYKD
# Procedure: as §1
# [4] = Metabolic stability in human liver microsomes; format: in vitro ADME; conditions: human liver microsomes 0.75 mg/mL, NADPH
# Procedure: A solution of the compound in acetonitrile at a concentration of 500 μM was prepared and diluted in 0.1 M potassium phosphate solution to obtain a 1.5 μM drug working solution. The drug working solution was co-incubated with a human liver microsome working solution at a final concentration of 0.75 mg/mL and a NADPH solution (at a final concentration of 550 μM), and the incubation was terminated by adding an acetonitrile solution at 0 min, 15 min, 30 min, 45 min, and 60 min, respectively. The remaining amount of the compound remained in the system at each time point was detected by using LC/MS, the absolute value k of the slope was measured by plotting the natural logarithm of the percentage of the remaining amount of the compound over time, and the calculation was performed according to the formula: T1/2 (half-life)=ln2/k=0.693/k.
# [5] = NCT02704403; cited from earlier work
# [6] = Cos-7 cells, Gal4-PPARδ (LBD), GW501516 10 nM = 100%, 16 h
# [7] = Cos-7 cells, Gal4-PPARγ (LBD), Rosiglitazone 1 μM = 100%, 16 h
pEC50 [1],"pEC50 [2, 6]","pEC50 [3, 7]",pEC50 [2],pEC50 [3],SMILES,further results
7.17,7.69,6.20,,,"Cc1cc(CCCN2C(=O)CN(c3ccc(C(F)(F)F)cc3)C2=O)cc(C)c1OC(C)(C)C(=O)O [Compound 89, 2-(4-(3-(2,5-Dioxo-3-(4-(trifluoromethyl)phenyl)imidazolidin-1-yl)propyl)-2,6-dimethylphenoxy)-2-methylpropionic Acid]",
6.68,,,5.85,5.54,COc1cc(CN2C(=O)CN(c3ccc(C(F)(F)F)cc3)C2=O)ccc1OC(C)(C)C(=O)O [Compound 97],
6.09,,5.73,,,"CSc1ccc(C(=O)/C=C/c2cc(C)c(OC(C)(C)C(=O)O)c(C)c2)cc1 [GFT505, Elafibranor, reference compound]",CLint scaled [4]: 116 mL/min/kg; half-life [4]: 15 min; interim analysis result of phase III clinical trial against NASH [5]: substantially ineffective
6.45,,,6.45,5.47,"Cc1cc(CCN2CC(=O)N(c3ccc(C(F)(F)F)cc3)C2=O)cc(C)c1OC(C)(C)C(=O)O [Compound 87, 2-(4-(2-(2,4-Dioxo-3-(4-(trifluoromethyl)phenyl)imidazolin-1-yl)ethyl)-2,6-dimethylphenoxy)-2-methylpropionic Acid]",
7.37,7.00,,,< 5.30,"CC(C)(Oc1c(F)cc(CN2C(=O)CN(c3ccc(C(F)(F)F)cc3)C2=O)cc1F)C(=O)O [Compound 21, 2-(4-((2,5-Dioxo-3-(4-(trifluoromethyl)phenyl)imidazolin-1-yl)methyl)-2,6-difluorophenoxy)-2-methylpropionic Acid]",
8.92,,,7.97,5.89,"Cc1cc(CN2C(=O)CN(c3ccc(C(F)(F)F)cc3)C2=O)cc(Cl)c1OC(C)(C)C(=O)O [Compound 13, 2-(2-Chloro-4-((2,5-dioxo-3-(4-(trifluoromethyl)phenyl)imidazolidin-1-yl)methyl)-6-methylphenoxy)-2-methylpropionic Acid]",
7.85,,,8.47,5.72,"CCC(Oc1c(C)cc(CN2C(=O)CN(c3ccc(C(F)(F)F)cc3)C2=O)cc1C)C(=O)O (stereo not shown) [Compound 67, 2-(4-((2,5-Dioxo-3-(4-(trifluoromethyl)phenyl)imidazolin-1-yl)methyl)-2,6-dimethylphenoxy)butyric Acid]",
9.05,8.21,6.20,,,Cc1cc(CN2C(=O)CN(c3ccc(-c4ccccc4)cc3)C2=O)cc(C)c1OC(C)(C)C(=O)O [Compound 41],"PPARα EC50 (nM) [1]: low nanomolar levels; PPARδ EC50 (nM) [2, 6]: low nanomolar levels"
6.99,,,7.01,6.32,Cc1cc(CN2C(=O)CN(c3cccc(F)c3)C2=O)cc(C)c1OC(C)(C)C(=O)O [Compound 103],
6.40,,,< 5.30,< 5.30,Cc1cc(CN2C(=O)CN(c3ccc(C=O)cc3)C2=O)cc(C)c1OC(C)(C)C(=O)O [Compound 99],
8.42,8.23,6.00,,,"Cc1cc(CN2C(=O)CN(c3cccc(C(F)(F)F)c3)C2=O)cc(C)c1OC(C)(C)C(=O)O [Compound 45, 2-(4-((2,5-Dioxo-3-(3-(trifluoromethyl)phenyl)imidazolin-1-yl)methyl)-2,6-dimethylphenoxy)-2-methylpropionic Acid]","PPARα EC50 (nM) [1]: low nanomolar levels; PPARδ EC50 (nM) [2, 6]: low nanomolar levels"
6.98,,,7.32,6.19,Cc1cc(CN2C(=O)CN(c3cccc(Cl)c3)C2=O)cc(C)c1OC(C)(C)C(=O)O [Compound 107],
6.56,6.45,,,< 5.30,"CC(C)(Oc1ccc(CN2C(=O)CN(c3ccc(C(F)(F)F)cc3)C2=O)cc1)C(=O)O [Compound 59, 2-(4-((2,5-Dioxo-3-(4-(trifluoromethyl)phenyl)imidazolin-1-yl)methyl)phenoxy)-2-methylpropionic Acid]",
7.42,,,6.20,5.57,"Cc1cc(CCCN2CC(=O)N(c3ccc(C(F)(F)F)cc3)C2=O)cc(C)c1OC(C)(C)C(=O)O [Compound 91, 2-(4-(3-(2,4-Dioxo-3-(4-(trifluoromethyl)phenyl)imidazolidin-1-yl)propyl)-2,6-dimethylphenoxy)-2-methylpropionic Acid]",
7.58,7.59,6.20,,,"Cc1ccc(N2CC(=O)N(Cc3cc(C)c(OC(C)(C)C(=O)O)c(C)c3)C2=O)cc1 [Compound 23, 2-(4-((2,5-Dioxo-3-(4-methylphenyl)imidazolin-1-yl)methyl)-2,6-dimethylphenoxy)-2-methylpropionic Acid]",
6.78,7.04,5.68,,,"Cc1cc(CN2C(=O)CN(c3ccccc3)C2=O)cc(C)c1OC(C)(C)C(=O)O [Compound 35, 2-(4-((2,5-Dioxo-3-phenylimidazolin-1-yl)methyl)-2,6-dimethylphenoxy)-2-methylpropionic Acid]",
8.62,,,7.51,5.67,"COc1cc(CN2C(=O)CN(c3ccc(C(F)(F)F)cc3)C2=O)cc(Cl)c1OC(C)(C)C(=O)O [Compound 73, 2-(2-Chloro-4-((2,5-dioxo-3-(4-(trifluoromethyl)phenyl)imidazolin-1-yl)methyl)-6-methoxyphenoxy)-2-methylpropionic Acid]",
6.49,6.76,,,< 5.30,"Cc1cc(CN2C(=O)CN(c3ccc(C(F)(F)F)cc3)C2=O)cc(C)c1OCC(=O)O [Compound 53, 2-(4-((2,5-Dioxo-3-(4-(trifluoromethyl)phenyl)imidazolin-1-yl)methyl)-2,6-dimethylphenoxy)acetic Acid]",
9.00,8.77,6.18,,,"Cc1cc(CN2C(=O)CN(c3ccc(C(F)(F)F)c(Cl)c3)C2=O)cc(C)c1OC(C)(C)C(=O)O [Compound 33, 2-(2,6-Dimethyl-4-((3-(3-chloro-4-(trifluoromethyl)phenyl)-2,5-dioxoimidazolin-1-yl)methyl)phenoxy)-2-methylpropionic Acid]","PPARα EC50 (nM) [1]: low nanomolar levels; PPARδ EC50 (nM) [2, 6]: low nanomolar levels"
7.10,8.19,5.77,,,Cc1cc(CN2C(=O)N(c3ccc(C(F)(F)F)cc3)C(=O)C2(C)C)cc(C)c1OC(C)(C)C(=O)O [Compound 83],
8.85,,,9.00,6.13,"Cc1cc(N2CC(=O)N(Cc3cc(C)c(OC(C)(C)C(=O)O)c(C)c3)C2=O)ccc1C(F)(F)F [Compound 29, 2-(2,6-Dimethyl-4-((3-(3-methyl-4-(trifluoromethyl)phenyl)-2,5-dioxoimidazolin-1-yl)methyl)phenoxy)-2-methylpropionic Acid]","PPARα EC50 (nM) [1]: low nanomolar levels; PPARδ EC50 (nM) [2, 6]: low nanomolar levels"
7.00,7.14,5.44,,,"Cc1cc(CN2C(=O)CN(c3ccc(F)cc3)C2=O)cc(C)c1OC(C)(C)C(=O)O [Compound 25, 2-(4-((3-(4-Fluorophenyl)-2,5-dioxoimidazolin-1-yl)methyl)-2,6-dimethylphenoxy)-2-methylpropionic Acid]",
7.50,,,7.82,6.44,Cc1cc(CN2C(=O)CN(c3cccc(OC(F)(F)F)c3)C2=O)cc(C)c1OC(C)(C)C(=O)O [Compound 109],
6.00,,,6.01,< 5.30,"Cc1cc(CN2C(=O)CN(c3ccc(C(F)(F)F)cc3)C2=O)ccc1OCC(=O)O [Compound 9, 2-(4-((2,5-Dioxo-3-(4-(trifluoromethyl)phenyl)imidazolidin-1-yl)methyl)-2-methylphenoxy)acetic Acid]",
